# According to paper PMC1925066, “Optical biosensor differentiates signaling of endogenous PAR1 and PAR2 in A431 cells” (BMC Cell Biology, 2007):
# Where a SMILES comes first, the peptide text is derived from it.
# Assays:
# [1] = test system: EGFR in A431 cells; experiment: Interference of EGFR activation with PAR signaling, DMR signal; type: cell-based, human
# Source text: (§1) A431 cells express large numbers of EGF receptors. AG1478 is a potent and selective EGFR tyrosine kinase inhibitor. It is also known that cholesterol removal by mβCD triggers a ligand-independent transactivation of EGFR in A431 cells. Thus, we were interested the interference of EGFR activation with PAR signaling. The preceding stimulation with EGF had little effect on the Ca^2+ mobilization induced by trypsin (Fig. 9a) or thrombin (data not shown).
# (§2) Figure 9 The effect of preceding EGF stimulation on PAR signaling. (a) The Ca^2+ mobilization. (b, c) The DMR signals. The ligands were EGF (100 nM), trypsin (100 nM), and thrombin (40 unit/ml). The cell responses with the pre-treatment with the HBSS only were also included as control.
# (§3) Corning® Epic™ angular interrogation system with transverse magnetic or p-polarized TM0 mode was used for all studies. The detailed instrumental setup and assay protocols had been previously described. Briefly, all compound solutions were prepared using 1 × HBSS containing minimal amount of dimethyl sulfoxide, while the starved cells were washed and maintained with 100 μl the serum-free DMEM. The cells were then treated with 50 μl 1 × HBSS buffered solution in the absence and presence of a compound, followed by stimulation with ligand solutions. The cellular responses were monitored in real time throughout the assays.
# [2] = test system: EGFR in A431 cells; design: method as in PMID 16766609; settings: blockage of EGFR tyrosine kinase activity in A431; cited from earlier work
# [3] = test system: endogenous PAR1 and PAR2 in A431 cells; experiment: Fluo-3 Ca2+ mobilization (Ca2+ flux) assay in quiescent A431 cells; type: cell-based, human; settings: for maximal [Ca^2+]i elevation: SFLLR-amide at 80 μM; for responsiveness (Ca^2+ mobilization) after pre-stimulation with thrombin: thrombin 40 unit/ml first; for Ca^2+ mobilization response after pre-stimulation with trypsin: trypsin 200 nM first, repeated stimulation separated by 6 min; for rapid and transient increase in intracellular Ca^2+: quiescent A431 cells
# Experimental: (§4) Human epidermoid carcinoma A431 cells ([…]) were grown in Dulbecco's modified Eagle's medium (DMEM) supplemented with 10% fetal bovine serum (FBS), 4.5 g/liter glucose, 2 mM glutamine, and antibiotics. ~5 × 10^4 cells at passage 3 to 8 suspended in 200 μl the DMEM medium containing 10% FBS were placed in each well of a 96well microplate, and were cultured at 37°C under air/5% CO2 for ~2 days, followed by ~20 hr starvation through continuously culturing in the serum-free DMEM.
# Cells were grown in Costar™ 96well clear cell culture microplates. After starvation, the cells were washed with 1× HBSS (1× regular Hank's balanced salt solution, 20 mM HEPES buffer, pH 7.0) in the presence of 2.5 mM probenicid, and labeled in the same buffer containing 4 μM Fluo-3 for 1 hour at room temperature. The cells were then washed twice with buffer, maintained with 100 μl 1× HBSS containing 2.5 mM probenicid. The assay was initiated by transferring 50 μl PAR agonist solution to the cell plate, and calcium signal was recorded over 6 minutes with a 6 sec interval using HTS7000 BioAssay Reader (PerkinElmer Life Science, Boston, MA). The fluorescent intensity before stimulation was recorded and used as a baseline. The percentage increase in fluorescence intensity after stimulation, relative to the baseline fluorescence, was analyzed and used directly as a measure for the increase of intracellular Ca^2+ level induced by PAR agonists.
# (§5) Unless specifically mentioned, three replicates were carried out for each measurement or each compound. The standard deviation was derived from these measurements (n = 3). […] All dose-dependent responses were analyzed using non-linear regression method with the Prism software (Graph Pad).
# [4] = test system: endogenous PAR1 and PAR2 in A431 cells; experiment: MRCAT resonant waveguide grating biosensor DMR assay in quiescent A431 cells; type: cell-based, human; settings: for effect of preceding stimulation on trypsin-induced DMR signal: trypsin 200 nM; for desensitization of trypsin-treated cells (DMR signal): trypsin 200 nM first, repeated stimulation separated by ~1 hr; for Gq-type DMR signal: quiescent A431 cells, 20 μM
# Experimental: as §4, §3, §5
# [5] = test system: cell surface cholesterol of A431 cells; experiment: Effect of cholesterol depletion (cyclodextrin pre-treatment) on agonist-induced Ca2+ mobilization; type: cell-based, human; settings: for IC50: one-phase decay fit
# Source text: Since the physiological significance of co-expression of two receptors in A431 is unclear, we were interested in the possibility of differentiated regulation of PAR1 and PAR2 signaling. A common mechanism for the cell to regulate and differentiate receptor signaling is compartmentalization of receptors and/or their signaling components. Amassing evidences support the hypothesis that there are many cholesterol-rich microdomains at the cell surface membrane, although their characteristics are still under extensive investigations. Such microdomain is believed to enable the sorting and segregation of receptors and their signaling cascades, thus regulating cell signaling. Methyl-β-cyclodextrin (mβCD) has been widely used to extract cell surface choleterol primarily through effluxing, thus disrupting these cholesterol-rich microdomains. Thus, we examined the effect of cholesterol depletion by mβCD on both Ca^2+ mobilization and DMR responses induced by thrombin and trypsin. […] Both dose-dependent inhibition curves appeared fit well with a one-phase decay non-linear regression, leading to an almost identical half-concentration (C1/2 of ~1.5 mM) of mβCD. This is consistent with the fact that mβCD results in rapid effluxing of cell membrane cholesterol molecules; and the amount of remain cell surface cholesterol depends on the concentration of mβCD in solution [27]. The higher concentration mβCD is, the less cholesterol is retained at the cell surface membrane. […]
# (§6) Cells were grown in Costar™ 96well clear cell culture microplates. […] The assay was initiated by transferring 50 μl PAR agonist solution to the cell plate, and calcium signal was recorded over 6 minutes with a 6 sec interval using HTS7000 BioAssay Reader (PerkinElmer Life Science, Boston, MA). The fluorescent intensity before stimulation was recorded and used as a baseline. The percentage increase in fluorescence intensity after stimulation, relative to the baseline fluorescence, was analyzed and used directly as a measure for the increase of intracellular Ca^2+ level induced by PAR agonists.
# [6] = test system: A431 cells; experiment: Cell toxicity / cell detachment from the biosensor surface; type: cell-based, human; settings: high doses (>8 mM)
# [7] = test system: cell surface cholesterol of A431 cells; experiment: Effect of cholesterol depletion (cyclodextrin pre-treatment) on agonist-induced DMR signals; type: cell-based, human
# Experimental: Similarly, the mβCD pre-treatment also led to a dose-dependent attenuation of the DMR signals induced by thrombin or trypsin (Fig. 7). However, there is a clear distinction between the inhibition curves of trypsin- and thrombin-induced DMR signals by mβCD. […] As expected, αCD up to 8 mM had little effect on both agonist-induced DMR responses. […] A23187 is a Ca^2+ ionophore, and is able to release stored Ca^2+ from the endoplasmic reticulum in cells.
# Figure 7 Cholesterol removal attenuates the agonist-induced DMR signals. mβCD was used to deplete cell surface cholesterol. Its effect on the amplitudes of the P-DMR events induced by (a) thrombin (40 unit/ml) or (b) trypsin (200 nM) was analyzed. In comparison, the effect of αCD was also included. (c) The DMR signals of A431 cells induced by A23187 without or with the pre-treatment with 5 mM mβCD.
# as §3
# [8] = test system: EGFR in A431 cells; experiment: Interference of EGFR activation with PAR signaling, Ca2+ mobilization; type: cell-based, human; settings: EGF 100 nM; trypsin 100 nM, thrombin 40 unit/ml
# Source text: as §1, §2, §6
# [9] = 100 nM, trypsin 100 nM, thrombin 40 unit/ml
molecule,measurement,setting,value
COc1cc2ncnc(Nc3cccc(Cl)c3)c2cc1OC [AG1478],effect of pre-treatment on inhibition of trypsin-induced DMR by cholesterol depletion,[1]; data not shown,did not counter the inhibitory effect
same,effect on trypsin-induced DMR signal,[2],partially attenuated
CC[C@H](C)[C@H](NC(=O)[C@H](CC(C)C)NC(=O)[C@@H](N)CO)C(=O)NCC(=O)N[C@@H](CCCCN)C(=O)N[C@H](C(N)=O)C(C)C [SLIGKV-amide] (H-SLIGKV-NH2; N-terminus assumed),maximal [Ca^2+]i elevation,[3]; A431 cells,52 ± 6%
same,EC50,"[3]; A431 cells, read-out: EC50 (n = 3) Ca^2+ flux assay",3.8 ± 0.4 µM
same,effect of preceding stimulation on trypsin-induced Ca^2+ mobilization,"[3]; peptide 20 μM first, then trypsin 200 nM, separated by 6 min",partially attenuated
same,responsiveness (Ca^2+ mobilization) after pre-stimulation with thrombin,[3]; separated by 6 min,not
same,Ca^2+ mobilization response after pre-stimulation with trypsin,[3],completely blocked
same,EC50,"[4]; A431 cells, amplitude of N-DMR event, read-out: EC50 (n = 3) N-DMR",9.1 ± 2.2 µM
same,EC50,"[4]; A431 cells, amplitude of P-DMR event, read-out: EC50 (n = 3) P-DMR",6.1 ± 1 µM
same,DMR signals in cells with or without pre-stimulation with thrombin,[4]; separated by ~1 hr,almost identical DMR signals
same,effect of preceding stimulation on trypsin-induced DMR signal,[4]; separated by ~1 hr,only partially attenuated
same,desensitization of trypsin-treated cells (DMR signal),[4],only partially
"OC[C@H]1O[C@@H]2O[C@H]3[C@H](O)[C@@H](O)[C@@H](O[C@H]4[C@H](O)[C@@H](O)[C@@H](O[C@H]5[C@H](O)[C@@H](O)[C@@H](O[C@H]6[C@H](O)[C@@H](O)[C@@H](O[C@H]7[C@H](O)[C@@H](O)[C@@H](O[C@H]1[C@H](O)[C@H]2O)O[C@@H]7CO)O[C@@H]6CO)O[C@@H]5CO)O[C@@H]4CO)O[C@@H]3CO [αCD, α-cyclodextrin]",effect on trypsin and thrombin-induced Ca^2+ mobilization responses,[5]; up to 8 mM,little effect
same,cell toxicity and cell detachment from the biosensor surface,[6],detectable cell toxicity
same,"effect on both agonist-induced (thrombin, trypsin) DMR responses",[7]; up to 8 mM,little effect
GYPGQV,rapid and transient increase in intracellular Ca^2+,[3],only PAR1 and PAR2 agonists resulted in
same,Gq-type DMR signal,[4],only PAR1 and PAR2 agonists resulted in
Methyl-β-cyclodextrin [mβCD],IC50,"[5]; thrombin 40 unit/ml, read-out: half-concentration (C1/2) for suppression of thrombin-induced Ca^2+ mobilization",~1.5 mM
same,IC50,"[5]; trypsin 200 nM, read-out: half-concentration (C1/2) for suppression of trypsin-induced Ca^2+ mobilization",~1.5 mM
same,effect on DMR signal induced by 5 μM A23187,[7]; pre-treatment at 5 mM,little effect
same,IC50,"[7]; thrombin 40 unit/ml, P-DMR amplitude, read-out: C1/2 for suppression of thrombin-induced DMR",1.2 ± 0.3 mM
same,IC50,"[7]; trypsin 200 nM, 2-phase decay, read-out: C1/2 for inhibition of trypsin-mediated DMR, first phase",5 ± 1 mM
same,IC50,"[7]; trypsin 200 nM, 2-phase decay, read-out: C1/2 for inhibition of trypsin-mediated DMR, second phase",11 ± 2 mM
TFRGAP,rapid and transient increase in intracellular Ca^2+,[3],only PAR1 and PAR2 agonists resulted in
same,Gq-type DMR signal,[4],only PAR1 and PAR2 agonists resulted in
"Thrombin: serine protease, PAR1 agonist, purchased from Sigma",EC50 (n = 3) Ca^2+ flux assay,[3]; A431 cells,6.0 ± 1.0 unit/ml
same,maximal [Ca^2+]i elevation,[3]; A431 cells,48 ± 4%
same,responsiveness (Ca^2+ mobilization) after pre-stimulation with thrombin,[3]; separated by 6 min,completely inhibited
same,Ca^2+ mobilization response after pre-stimulation with trypsin,[3],completely blocked
same,EC50 (n = 3) N-DMR,"[4]; A431 cells, amplitude of N-DMR event",11.0 ± 1.9 unit/ml
same,EC50 (n = 3) P-DMR,"[4]; A431 cells, amplitude of P-DMR event",9.6 ± 2.0 unit/ml
same,effect of preceding stimulation on trypsin-induced DMR signal,[4]; separated by ~1 hr,only partially attenuated
same,desensitization of trypsin-treated cells (DMR signal),[4],completely desensitized
"bradykinin (RPPGFSPFR; Bradykinin; UniProt P01042 381-389, looked up) [agonist for bradykinin B2 receptor]",Ca^2+ mobilization response after pre-stimulation with PAR agonists,"[3]; bradykinin 100 nM, separated by 6 min",neither of PAR agonists examined had any effect
same,effect of preceding stimulation on DMR signal induced by any PAR agonist,"[4]; bradykinin 100 nM first, separated by ~1 hr",no obvious effect
same,desensitization of trypsin-treated cells (DMR signal),[4],not
"epidermal growth factor (NSDSECPLSHDGYCLHDGVCMYIEALDKYACNCVVGYIGERCQYRDLKWWELR; UniProt P01133 971-1023, looked up) [EGF, epidermal growth factor, purchased from Sigma]",effect on N-DMR event induced by either trypsin or thrombin,[1]; [9],almost completely inhibited
same,effect on P-DMR event induced by either trypsin or thrombin,[1]; [9],only slightly attenuated
same,effect of preceding stimulation on Ca^2+ mobilization induced by trypsin or thrombin,[8],little effect
